Consider two compounds from patent US12365671B2, “Crystalline hydrate of topramezone sodium salt and preparation method therefor” (ROTAM AGROCHEM INTERNATIONAL COMPANY LIMITED, priority 2021, dated 2025).

This series can be described thus: Formulation preparation behaviour (jet pulverization, granulation). The series is classed as physicochemical. The following applies: e.g. soluble granule, sodium salt. From the text: The crystalline 2.5 hydrate of topramezone sodium salt of the present invention has huge advantages over the anhydrous form of topramezone sodium salt with respect to formulation preparation. The anhydrous topramezone sodium salt can be prepared according to the preparation method of the topramezone potassium salt alike compound reported in US2002025910A. […] Furthermore, the formulation preparation process is difficult. For example, when preparing the soluble granule, creaming and caking of the ingredients frequently occurs, and granulation thus becomes difficult.

As for `Cc1c(C(=O)c2cnn(C)c2[O-])ccc(S(C)(=O)=O)c1C1=NOCC1.[Na+]` [crystalline 2.5 hydrate of topramezone sodium salt], the “behaviour during jet pulverization / granulation” value is listed as “can be granulated easily”. As for `Cc1c(C(=O)c2cnn(C)c2[O-])ccc(S(C)(=O)=O)c1C1=NOCC1.[Na+]` [anhydrous topramezone sodium salt], the entry is “easy to agglomerate during jet pulverization”.
